Reference: patent US20160038474A1, “COMPOSITIONS AND METHODS FOR THE MODULATION OF HEMOGLOBIN (S)” (GLOBAL BLOOD THERAPEUTICS, INC., priority 2013, published 2016)

Experiments:
[1] = test system: hemoglobin and human serum albumin; test: In vitro binding to hemoglobin and human serum albumin at physiologic ratio; conditions: both proteins present in their respective physiologic ratio
Protocol: However, when the red blood cell compartment is considered, compound 12 unexpectedly partitions into blood to a far greater extent than compound 22 or compound 23. […] When the red blood cell/plasma ratio was measured at the peak concentration, compound 12 partitioned at a ratio of 70 to 1 into the erythrocytes attesting to its preferential partition into the compartment which contains the drug target hemoglobin. Supportive data was reported in an in vitro system measuring binding of compound 12 to hemoglobin and human serum albumin.

[2] = biological target: T1, whole blood from homozygous sickle cell patients, Hb(S) (Homo sapiens, UniProt P68871+P69905, E7V); test: Reverse Hemox assay (oxygen equilibrium curves), whole blood; assay type: cell-based; conditions: for Whole Blood OEC (delta p50%): [Hb] 1 mM
T1 construct: Oxygen Equilibrium Curves (OEC) of whole blood before and after treatment; from tissue; host or cells: whole blood (or washed red blood cells) of homozygous sickle cell patients
Protocol: Oxygen Equilibrium Curves (OEC) of whole blood before and after treatment with different concentrations of compounds 12, 22 and 23 were performed as follows using a HEMOX analyzer (TCS Scientific, New Hope, Pa.). Blood samples from homozygous sickle cell patients were obtained though the Hemoglobinopathy Center at Children's Hospital Oakland Research Institute (CHORI) with Institutional Review Board approval. The hematocrit was adjusted to 20% using autologous plasma and the blood samples were incubated for 1 hour at 37° C. in absence or presence of compounds. 100 μl of these samples were added to 5 mL of Hemox butter (30 mM TES, 130 mM NaCl, 5 mM KCl, pH=7.4) at 37° C. and then transferred to the Hemox sample chamber. The samples were saturated with oxygen by flushing with compressed air for 10 minutes. The samples were then flushed with pure nitrogen and the respective absorbances of oxy- and deoxy-Hb are recorded as a function of the solution pO2. The oxygen equilibrium data were then fitted to the Hill Model to obtain values for p50. The deoxygenation curves for both whole blood alone (control) and whole blood in the presence of the compound were collected with the TCS software.
Results: Table 3 below lists the delta p50% values where “+” indicates a delta p50% of between 0 and 29, “++” indicates a delta p50% of between 30 and 50, and “+++” indicates a delta p50% of 50 or greater.
Reverse hemox assay was performed essentially as described in Example 2, above, using either washed red blood cells or whole blood.

[3] = biological target: T2, HbS/A (Homo sapiens, UniProt P68871+P69905, E7V); test: R/T assay (relaxed-to-tense transition); assay type: biochemical; conditions: HbS/A 3 μM
T2 construct: A mixture of HbS/A was purified from blood obtained from homozygous sickle cell patients; from tissue; host or cells: blood of homozygous sickle cell patients
Protocol: This ability can be expressed as a “delta R” value (i.e., the change in the time-period of the R state after hemoglobin is treated with a compound, as compared to the period without treatment with the compound). Delta R is the % R to remaining after the compounds treatment compared with no treatment (e.g., if R % without treatment is 8% while with treatment with a target compound is 48% R at 30 μM, then % R is 40% for that compound.
A mixture of HbS/A was purified from blood obtained from homozygous sickle cell patients though the Hemoglobinopathy Center at Children's Hospital Oakland Research Institute (CHORI) with Institutional Review Board approval. HbS/A (at a final concentration of 3 μM) was incubated for 1 hr at 37° C. in presence or absence of compounds in […] potassium phosphate buffer, pH=7.4 and 30 μM 2,3 diphosphoglycerate (DPG) in 96 well plates in a final volume of 160 μl. Compounds were added at different concentrations (3 μM to 100 μM final concentrations). Plates were covered with a Mylar film. After incubation was completed the Mylar cover was removed and the plates were placed in a Spectrostar Nano plate reader previously heated at 37° C. Five minutes later, N2 (flow rate=20 L/min) was flowed through the spectrophotometer. Spectroscopic measurements (300 nm to 700 nm) were taken every 5 min for 2 hours. Data analysis was performed by using linear regression from the data retrieved for all wavelengths.

[4] = biological target: T3, HbS (Homo sapiens, UniProt P68871+P69905, E7V); test: 96-well oxygen dissociation assay (ODA); assay type: biochemical
Text: Results: Table 4 below lists the change in oxygen affinity (Δoxy state). After two hours of passive deoxygenation, compound 12, at an equimolar concentration to Hb, increased the Hb oxygen affinity by 6-fold.

[5] = biological target: purified Hb (Homo sapiens, UniProt P68871+P69905); test: TCS Hemox analyzer with purified Hb; assay type: biochemical; conditions: purified Hb 25 μM
Protocol: The agents were then assayed in a TCS Hemox analyzer using purified Hb at 25 μM.

[6] = test system: sickle cell disease patient whole blood (ssRBCs); test: Viscosity assay, hypoxic sickle cell blood; assay type: cell-based, human; conditions: for Viscosity (ΔcP): [Hb] 1.5 mM, two hours of hypoxia
Protocol: Sickle cell disease patients develop anemia as a means for the circulatory system to compensate for increase in blood viscosity caused by the non-deformable sickle cell red blood cells (ssRBCs). The effects of 5-HMF, compound 5, compound 9, or compound 12 were tested on sickle cell disease patient blood rheology to determine if these compounds decrease the viscosity of ssRBCs that have undergone hypoxia. Using blood from patients with sickle cell disease, whole blood (30% hematocrit, ˜1.5 mM Hb) was incubated with 5-HMF, compound 5, compound 9, or compound 12 during exposure to two hours of hypoxia (2.4% 02). A cone-plate viscometer was used to measure the viscosity at shear rates ranging from 60 s^−1 to 415 s^−1.

[7] = test system: red blood cells; test: Sickling assay under hypoxia; assay type: cell-based; conditions: for Sickling (% sickled): [HbS] ~1 mM (20% HCT), No Cmpd 85
Protocol: For sickling experiments, red blood cells were pre-incubated with compound 12 or 5-HMF, then subjected to hypoxia (pO2 of ˜3 mmHg) in a 37° C. humidified chamber for 0.5 hr and subsequently imaged using a light microscope. The percentage of sickled cells in each image was calculated using CellVigene software.

[8] = biological target: T3, HbS; test: 96-well oxygen dissociation assay (ODA); assay type: biochemical; remark: listed apart in the source
[9] = ratio of compound 12 to Hb of 1:3

Structure (SMILES): CC(C)n1nccc1-c1ncccc1COc1cccc(O)c1C=O [Compound 12, 2-hydroxy-6-[[2-(2-propan-2-ylpyrazol-3-yl)pyridin-3-yl]methoxy] benzaldehyde]
- binding preference, hemoglobin versus human serum albumin [1]: preferentially binding to hemoglobin
- Reverse Hemox delta p50% (class) ([2]; 1 mM compound, whole blood, hematocrit 20%): +++ (a delta p50% of 50 or greater)
- Reverse Hemox delta p50% ([2]; 1 mM compound, whole blood, hematocrit 20%, 1 hour 37° C.): 79.83%
- Whole Blood OEC (delta p50%) ([2]; [cmp] 1 mM): 80%
- Whole Blood OEC (delta p50%) ([2]; [cmp] 3 mM): >80%
- p50 ([2]; whole blood from sickle cell disease patients, control blood p50 30 mm Hg): 6 mm Hg
- R-T delta R ([3]; 9 μM compound): 65.45
- R-T delta R (class) ([3]; 9 μM compound): +++ (a delta R of 50 or greater)
- R-T delta R ([3]; 10 μM compound): 62.75
- R-T delta R (class) ([3]; 10 μM compound): +++ (a delta R of 50 or greater)
- potency at increasing the oxygen affinity of HbS compared with 5-HMF ([4]; 96-well ODA): more potent at increasing the oxygen affinity of HbS than 5-hydroxy furfural
- Hb in ODA (Δoxy state) ([4]; [Hb] 3 μM, [cmp] 3 μM): 56
- increase of Hb oxygen affinity ([4]; equimolar concentration to Hb, after two hours of passive deoxygenation): 6 fold
- improvement of oxygen affinity versus Hb control ([5]; compound:Hb ratio of 1:3): 15%
- improvement of oxygen affinity versus Hb control ([5]; stoichiometric concentrations): greater than 70%
- Viscosity (ΔcP) ([6]; [cmp] 1.6 mM): 2.0 cP
- Viscosity (ΔcP) ([6]; [cmp] 8 mM): >2.4 cP
- blood viscosity ([6]; equimolar compound, hypoxia, 6.33 cP without compound): 4.32 cP
- Sickling (% sickled) ([7]; [Cmpd] 1 mM): 41%
- Sickling (% sickled) ([7]; [Cmpd] 2 mM): 33%
- Sickling (% sickled) ([7]; [Cmpd] 5 mM): 28%
- sickling of RBCs (in words) ([7]; hypoxia 0.5 hr, 37° C.): prevented sickling of RBCs under hypoxia
- Hb in ODA (Δoxy state) ([8]; [Hb] 3 μM, [cmp] 1 μM): 16
- improvement in oxygen affinity for Hb [8, 9]: two-fold
- more oxygenated Hb present [8, 9]: 16%
